Measured values taken from publication PMC11989239, “Structure–Property Relationships in Novel Series of Photoswitchable Local Anesthetic Ethercaine Derivatives: Emphasis on Biological and Photophysical Properties” (International Journal of Molecular Sciences, 2025).
Structures can show the parent of a compound that is named as a salt. Where two headings read alike, the source gives them in different places.

Experiments:
[1] = In vitro cytotoxicity, MTT test, 24 h incubation; type: cell-based, human; conditions: human, dermal fibroblast cells (DF2), DF2 fibroblasts
Description: The culture of dermal fibroblast cells (DF2) was obtained from the collection of the Institute of Cytology of the Russian Academy of Sciences (Saint Petersburg, Russia). The cells were cultured in plastic vials with a cell growth surface of 25 cm^2 (Costar, Richmond, VA, USA) on DMEM/F12 medium with the addition of L-glutamine and 10% fetal bovine serum (FBS) (PanEco, Moscow, Russia). The cells were cultured at 37 °C in a humid atmosphere with a content of 5% CO2 (Binder CO2 incubator, Germany). Cell lines from 3 to 7 passages were used in the work. To conduct experiments to evaluate the cytotoxicity of compounds, cells were sieved into 96-well culture plates at a concentration of 10^5 cells per ml, incubated at 37 °C (humidified atmosphere, 5% carbon dioxide) for 24–28 h. Further, 50 µL of the studied substances was added. The cells were incubated with the compounds for 24 h at 37 °C. Next, the cytotoxic effect of the substances was evaluated by a colorimetric method using an MTT test and visually, using an inverted microscope. The criterion for evaluating the specific activity of the compound was the value of IC50, the concentration at which 50% death of culture cells was noted.

[2] = Z-E isomerization half-life by UV/Vis spectrophotometry after 365 nm irradiation; type: physicochemical; conditions: for τ1/2 (DMSO), Z-E isomerization half-life: RT, after 365 nm 5 min; for τ1/2 (Aqueous Kolliphor ELP), Z-E isomerization half-life: aqueous 4% Kolliphor ELP solution
Description: As one of the main physicochemical properties of photopharmacological agents, the Z-E half-life was investigated, which determines the stability of the Z-isomer. The Z-E half-lifes were measured using UV/Vis spectrophotometry, converting the compound to the Z-isomer by irradiating with UV light and observing the change in absorption intensity due to reverse Z-E relaxation.
Z-E isomerization half-life was determined using UV/Vis spectroscopy. Solutions were prepared and kept in the dark at RT before the experiment. First, the spectrum in the dark was registered ( PSSdark) , which corresponds to the photostationary state (PSS) with E-isomer predominance. Then, the cuvette with the solution was irradiated with UV light (λ = 365 nm) for 5 min to give the PSS with Z-isomer predominance. The corresponding spectrum was registered ( PSS365nm) . During the subsequent isomerization, the kinetics of changes in the absorption value were recorded at the wavelength of the absorption maximum corresponding to the E-isomer ( λmax(E)) . Then, lnAt/A0 values were calculated using the Equation (1):(1) lnAt/A0=lnAbsPSS(dark)−Abstime/AbsPSS(dark)−AbsPSS(365nm), where AbsPSS(dark) , AbsPSS(365nm), and Abstime are absorbance values at λmax(E) in the dark at the beginning of the experiment, after UV light (λ = 365 nm) irradiation, and at different time points from 0 to 60 min, respectively. Then, a graph was plotted depending on lnAt/A0 values from time, the trend line was calculated, and a first-order rate constant (k) for the thermal back Z-E isomerization reaction was obtained as the slope of the trend line.
For a first-order reaction, half-life t1/2 can be calculated using the Equation (2):(2) t1/2=ln2/k

[3] = Solubility in water / aqueous solutions; type: physicochemical
[4] = tested on: rabbit eye cornea; set-up: method as in PMID 35628162; conditions: 2% solution of lidocaine, obtained previously, cited from earlier work; for Local Anesthetic Activity (Regnier Index, Min—13, Max—1300) Under Irradiation (λ = 365 nm): UV light irradiation

Compound	IC50 at 24 h [1] [µM]	τ1/2 (DMSO), Z-E isomerization half-life [2] [min]	τ1/2 (Aqueous Kolliphor ELP), Z-E isomerization half-life [2] [min]	Solubility in aqueous solutions (in words) ([3]; seen in the cytotoxicity test)	solubility ([3]; water) [mg/mL]	Local Anesthetic Activity (Regnier Index, Min—13, Max—1300) Under Irradiation (λ = 365 nm) ([4]; listed as lidocaine)	Local Anesthetic Activity (Regnier Index, Min—13, Max—1300) Under Irradiation (λ = 365 nm) [4]	Local Anesthetic Activity (Regnier Index, Min—13, Max—1300) In the Dark ([4]; listed as lidocaine)	Local Anesthetic Activity (Regnier Index, Min—13, Max—1300) In the Dark [4]
O=C(CN1CCOCC1)Nc1ccc(/N=N/c2ccccc2)cc1 [Compound 2]	> 200	1830	31	poor solubility in aqueous solutions at concentrations above 200 µM					
c1csc(/N=N/c2ccc(OCCN3CCOCC3)cc2)n1 [Compound 25a, 2-(4-(2-(N-morpholino)-ethoxy)-phenylazo)-thiazole hydrochloride]	200	12	13		> 100				
CCN(CC)CC(=O)Nc1c(C)cccc1C [Lidocaine 2%, Lidocaine]	> 5000					469 ± 37	469 ± 37 (n = 8)	451 ± 40	451 ± 40 (n = 8)
